Data taken from patent US11986532B2 (Arvinas Operations, Inc., priority 2021, dated 2024).

Biological target: T1, BCL6 (Homo sapiens, UniProt P41182)
T1 construct: endogenous in cells; host or cells: T47D breast cancer epithelial cells
Test: Immunofluorescence protocol for high content imaging of BCL6 (degradation) in T47D cells, 3 days compound treatment
Type: cell-based
Settings: T47D cells, 3 days compound treatment; for DC50: read-out: Mean DC50 (nM)* category; for Dmax: read-out: Mean Dmax (%)** category
In short: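 For degradation, compound series (3-fold, 11 points, top 0.1 or 1 μM final) were added to adherent T47D cultures for 3 days. BCL6 immunostaining used a rabbit antibody at 1:300 and an Alexa-488 secondary, with imaging at 10× magnification.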

Compound | DC50 [nM] | Dmax [%]
CNC(=O)COc1cc2cc(Nc3nc(N4CCC(O[C@H]5C[C@H](N6CCN(c7ccc8c(c7Cl)CN(C7CCC(=O)NC7=O)C8=O)CC6)C5)CC4)ncc3Cl)ccc2n(C(C)C)c1=O (stereo partly shown) [Compound 181, 2-({6-[(5-chloro-2-{4-[(1r,3r)-3-{4-[4-chloro-2-(2,6-dioxopiperidin-3-yl)-1-oxo-2,3-dihydro-1H-isoindol-5-yl]piperazin-1-yl}cyclobutoxy]piperidin-1-yl}pyrimidin-4-yl)amino]-2-oxo-1-(propan-2-yl)-1,2-dihydroquinolin-3-yl}oxy)-N-methylacetamide] | < 10 | ≥ 70
CNC(=O)COc1cc2cc(Nc3nc(N4CCC(O[C@H]5C[C@H](N6CCN(c7ccc8c(c7F)CN(C7CCC(=O)NC7=O)C8=O)C[C@H]6C)C5)CC4)ncc3Cl)ccc2n(C(C)C)c1=O (stereo partly shown) [Compound 182] | < 10 | ≥ 70
CNC(=O)COc1cc2cc(Nc3nc(N4CCC(OC5CN([C@H]6CC[C@H](c7ccc8c(c7F)CN(C7CCC(=O)NC7=O)C8=O)CC6)C5)CC4)ncc3Cl)ccc2n(C(C)C)c1=O (stereo partly shown) [Compound 183, 2-{[6-({5-chloro-2-[4-({1-[(1r,4r)-4-[2-(2,6-dioxopiperidin-3-yl)-4-fluoro-1-oxo-2,3-dihydro-1H-isoindol-5-yl]cyclohexyl]azetidin-3-yl}oxy)piperidin-1-yl]pyrimidin-4-yl}amino)-2-oxo-1-(propan-2-yl)-1,2-dihydroquinolin-3-yl]oxy}-N-methylacetamide] | < 10 | ≥ 70
CNC(=O)COc1cc2cc(Nc3nc(N4CCC(OC5CN([C@H]6CC[C@@H](c7ccc8c(c7F)CN(C7CCC(=O)NC7=O)C8=O)CC6)C5)CC4)ncc3Cl)ccc2n(C(C)C)c1=O (stereo partly shown) [Compound 184] | < 10 | ≥ 70
CNC(=O)COc1cc2cc(Nc3nc(N4CCC(OC5CN([C@H]6CC[C@H](c7ccc8c(c7Cl)CN(C7CCC(=O)NC7=O)C8=O)CC6)C5)CC4)ncc3Cl)ccc2n(C(C)C)c1=O (stereo partly shown) [Compound 185] | < 10 | 50 to 70
CNC(=O)COc1cc2cc(Nc3nc(N4CCC(OC5CN([C@H]6CC[C@@H](c7ccc8c(c7Cl)CN(C7CCC(=O)NC7=O)C8=O)CC6)C5)CC4)ncc3Cl)ccc2n(C(C)C)c1=O (stereo partly shown) [Compound 186, 2-{[6-({5-chloro-2-[4-({1-[(1s,4s)-4-[4-chloro-2-(2,6-dioxopiperidin-3-yl)-1-oxo-2,3-dihydro-1H-isoindol-5-yl]cyclohexyl]azetidin-3-yl}oxy)piperidin-1-yl]pyrimidin-4-yl}amino)-2-oxo-1-(propan-2-yl)-1,2-dihydroquinolin-3-yl]oxy}-N-methylacetamide] | < 10 | < 50
CNC(=O)COc1cc2cc(Nc3nc(N4CCC(O[C@H]5C[C@H](N6CCC(c7ccc8c(c7F)CN(C7CCC(=O)NC7=O)C8=O)C(C)(C)C6)C5)CC4)ncc3Cl)ccc2n(C(C)C)c1=O (stereo partly shown) [Compound 187, 2-({6-[(5-chloro-2-{4-[(1r,3r)-3-{4-[2-(2,6-dioxopiperidin-3-yl)-4-fluoro-1-oxo-3H-isoindol-5-yl]-3,3-dimethylpiperidin-1-yl}cyclobutoxy]piperidin-1-yl}pyrimidin-4-yl)amino]-1-isopropyl-2-oxoquinolin-3-yl}oxy)-N-methylacetamide] | < 10 | ≥ 70
CNC(=O)COc1cc2cc(Nc3nc(N4CCC(O[C@H]5C[C@H](N6CCC(c7cc(F)c8c(c7F)CN([C@H]7CCC(=O)NC7=O)C8=O)CC6)C5)CC4)ncc3Cl)ccc2n(C(C)C)c1=O [Compound 188, 2-({6-[(5-chloro-2-{4-[(1r,3r)-3-(4-{2-[(3S)-2,6-dioxopiperidin-3-yl]-4,7-difluoro-1-oxo-2,3-dihydro-1H-isoindol-5-yl}piperidin-1-yl)cyclobutoxy]piperidin-1-yl}pyrimidin-4-yl)amino]-2-oxo-1-(propan-2-yl)-1,2-dihydroquinolin-3-yl}oxy)-N-methylacetamide] | < 10 | ≥ 70
CNC(=O)COc1cc2cc(Nc3nc(N4CCC(O[C@H]5C[C@H](N6CCN(c7ccc8c(n7)CN(C7CCC(=O)NC7=O)C8=O)CC6)C5)CC4)ncc3Cl)ccc2n(C(C)C)c1=O (stereo partly shown) [Compound 189, 2-((6-((5-chloro-2-(4-((1r,3r)-3-(4-(6-(2,6-dioxopiperidin-3-yl)-5-oxo-6,7-dihydro-5H-pyrrolo[3,4-b]pyridin-2-yl)piperazin-1-yl)cyclobutoxy)piperidin-1-yl)pyrimidin-4-yl)amino)-1-isopropyl-2-oxo-1,2-dihydroquinolin-3-yl)oxy)-N-methylacetamide] | < 10 | 50 to 70
CNC(=O)COc1cc2cc(Nc3nc(N4CCC(O[C@H]5C[C@H](N6CCC(c7ccc8c(c7F)CN(C7CCC(=O)NC7=O)C8=O)CC6)C5)CC4)ncc3Cl)ccc2n(C2CCC2)c1=O (stereo partly shown) [Compound 190, 2-({6-[(5-chloro-2-{4-[(1r,3r)-3-{4-[2-(2,6-dioxopiperidin-3-yl)-4-fluoro-1-oxo-2,3-dihydro-1H-isoindol-5-yl]piperidin-1-yl}cyclobutoxy]piperidin-1-yl}pyrimidin-4-yl)amino]-1-cyclobutyl-2-oxo-1,2-dihydroquinolin-3-yl}oxy)-N-methylacetamide] | < 10 | ≥ 70
CNC(=O)COc1cc2cc(Nc3nc(N4CCC(O[C@H]5C[C@H](N6CCC(c7ccc8c(c7F)CN(C7CCC(=O)NC7=O)C8=O)CC6)C5)CC4)ncc3Cl)ccc2n(C2CCCC2)c1=O (stereo partly shown) [Compound 191, 2-({6-[(5-chloro-2-{4-[(1r,3r)-3-{4-[2-(2,6-dioxopiperidin-3-yl)-4-fluoro-1-oxo-2,3-dihydro-1H-isoindol-5-yl]piperidin-1-yl}cyclobutoxy]piperidin-1-yl}pyrimidin-4-yl)amino]-1-cyclopentyl-2-oxo-1,2-dihydroquinolin-3-yl}oxy)-N-methylacetamide] | < 10 | ≥ 70
CNC(=O)COc1cc2cc(Nc3nc(N4CCC(O[C@H]5C[C@H](N6CCN(c7ccc8c(n7)CN(C7CCC(=O)NC7=O)C8=O)[C@@H](C)C6)C5)CC4)ncc3Cl)ccc2n(C(C)C)c1=O (stereo partly shown) [Compound 192] | < 10 | ≥ 70
CNC(=O)COc1cc2cc(Nc3nc(N4CCC(O[C@H]5C[C@H](N6CCN(c7ccc8c(c7C)C(=O)N(C7CCC(=O)NC7=O)C8=O)[C@H](C)C6)C5)CC4)ncc3Cl)ccc2n(C(C)C)c1=O (stereo partly drawn) [Compound 193, 2-({6-[(5-chloro-2-{4-[(1r,3r)-3-[(3R)-4-[2-(2,6-dioxopiperidin-3-yl)-4-methyl-1,3-dioxoisoindol-5-yl]-3-methylpiperazin-1-yl]cyclobutoxy]piperidin-1-yl}pyrimidin-4-yl)amino]-1-isopropyl-2-oxoquinolin-3-yl}oxy)-N-methylacetamide] | < 10 | ≥ 70
CNC(=O)COc1cc2cc(Nc3nc(N4CCC(O[C@H]5C[C@H](N6CCN(c7ccc8c(c7C)C(=O)N(C7CCC(=O)NC7=O)C8=O)C[C@@H]6C)C5)CC4)ncc3Cl)ccc2n(C(C)C)c1=O (stereo partly drawn) [Compound 194, 2-({6-[(5-chloro-2-{4-[(1r,3r)-3-[(2S)-4-[2-(2,6-dioxopiperidin-3-yl)-4-methyl-1,3-dioxo-2,3-dihydro-1H-isoindol-5-yl]-2-methylpiperazin-1-yl]cyclobutoxy]piperidin-1-yl}pyrimidin-4-yl)amino]-2-oxo-1-(propan-2-yl)-1,2-dihydroquinolin-3-yl}oxy)-N-methylacetamide] | < 10 | ≥ 70
CNC(=O)COc1cc2c(F)c(Nc3nc(N4CCC(O[C@H]5C[C@H](N6CCN(c7ccc8c(c7C)C(=O)N(C7CCC(=O)NC7=O)C8=O)CC6)C5)CC4)ncc3Cl)ccc2n(C(C)C)c1=O (stereo partly shown) [Compound 195] | < 10 | ≥ 70
CC[C@H]1CN([C@H]2C[C@H](OC3CCN(c4ncc(Cl)c(Nc5ccc6c(c5)cc(OCC(=O)NC)c(=O)n6C(C)C)n4)CC3)C2)CCN1c1ccc2c(c1Cl)CN(C1CCC(=O)NC1=O)C2=O (stereo partly drawn) [Compound 196, 2-({6-[(5-chloro-2-{4-[(1r,3r)-3-[(3S)-4-[4-chloro-2-(2,6-dioxopiperidin-3-yl)-1-oxo-2,3-dihydro-1H-isoindol-5-yl]-3-ethylpiperazin-1-yl]cyclobutoxy]piperidin-1-yl}pyrimidin-4-yl)amino]-2-oxo-1-(propan-2-yl)-1,2-dihydroquinolin-3-yl}oxy)-N-methylacetamide] | < 10 | ≥ 70
CNC(=O)COc1cc2cc(Nc3nc(N4CCC(O[C@H]5C[C@H](N6CCC(c7ccc8c(c7C)CN(C7CCC(=O)NC7=O)C8=O)CC6)C5)CC4)ncc3Cl)ccc2n(C(C)C)c1=O (stereo partly shown) [Compound 197] | < 10 | ≥ 70
CNC(=O)COc1cc2cc(Nc3nc(N4CCC(O[C@H]5C[C@H](N6CCN(c7ccc8c(n7)CN(C7CCC(=O)NC7=O)C8=O)[C@H](C)C6)C5)CC4)ncc3Cl)ccc2n(C(C)C)c1=O (stereo partly drawn) [Compound 198, 2-({6-[(5-chloro-2-{4-[(1r,3r)-3-[(3R)-4-[6-(2,6-dioxopiperidin-3-yl)-5-oxo-5H,6H,7H-pyrrolo[3,4-b]pyridin-2-yl]-3-methylpiperazin-1-yl]cyclobutoxy]piperidin-1-yl}pyrimidin-4-yl)amino]-2-oxo-1-(propan-2-yl)-1,2-dihydroquinolin-3-yl}oxy)-N-methylacetamide] | < 10 | ≥ 70
CNC(=O)COc1cc2c(F)c(Nc3nc(N4CCC(O[C@H]5C[C@H](N6CCN(c7ccc8c(c7C)C(=O)N(C7CCC(=O)NC7=O)C8=O)[C@H](C)C6)C5)CC4)ncc3Cl)ccc2n(C(C)C)c1=O (stereo partly shown) [Compound 199] | < 10 | ≥ 70
CCc1c(N2CCN([C@H]3C[C@H](OC4CCN(c5ncc(Cl)c(Nc6ccc7c(c6)cc(OCC(=O)NC)c(=O)n7C(C)C)n5)CC4)C3)CC2)ccc2c1C(=O)N(C1CCC(=O)NC1=O)C2=O (stereo partly shown) [Compound 200, 2-({6-[(5-chloro-2-{4-[(1r,3r)-3-{4-[2-(2,6-dioxopiperidin-3-yl)-4-ethyl-1,3-dioxo-2,3-dihydro-1H-isoindol-5-yl]piperazin-1-yl}cyclobutoxy]piperidin-1-yl}pyrimidin-4-yl)amino]-2-oxo-1-(propan-2-yl)-1,2-dihydroquinolin-3-yl}oxy)-N-methylacetamide] | 10 to 50 | ≥ 70
